Columns and labels:
Conditions in all cases: Oryctolagus cuniculus
[1] = Antiplatelet activity against washed rabbit platelet assessed as thrombin-induced platelet aggregation at 100 ug/mL pre-incubated 3 mins before thrombin challenge by turbidimetric method
[2] = Antiplatelet activity against washed rabbit platelet assessed as collagen-induced platelet aggregation at 100 ug/mL pre-incubated 3 mins before collagen challenge by turbidimetric method
[3] = Antiplatelet activity against washed rabbit platelet assessed as platelet activating factor-induced platelet aggregation at 100 ug/mL pre-incubated 3 mins before PAF challenge by turbidimetric method
[4] = Antiplatelet activity against washed rabbit platelet assessed as arachidonic acid-induced platelet aggregation at 100 ug/mL pre-incubated 3 mins before arachidonic acid challenge by turbidimetric method
[5] = Antiplatelet activity against washed rabbit platelet assessed as thrombin-induced platelet aggregation at 50 ug/mL preincubated 3 mins before thrombin challenge by turbidimetric method
[6] = Antiplatelet activity against washed rabbit platelet assessed as collagen-induced platelet aggregation at 50 ug/mL pre-incubated 3 mins before collagen challenge by turbidimetric method
[7] = Antiplatelet activity against washed rabbit platelet assessed as platelet activating factor-induced platelet aggregation at 50 ug/mL preincubated 3 mins before PAF challenge by turbidimetric method
[8] = Antiplatelet activity against washed rabbit platelet assessed as arachidonic acid-induced platelet aggregation at 50 ug/mL preincubated 3 mins before arachidonic acid challenge by turbidimetric method
[9] = Antiplatelet activity against washed rabbit platelet assessed as arachidonic acid-induced platelet aggregation at 20 ug/mL pre-incubated 3 mins before arachidonic acid challenge by turbidimetric method
[10] = Antiplatelet activity against washed rabbit platelet assessed as collagen-induced platelet aggregation at 20 ug/mL pre-incubated 3 mins before collagen challenge by turbidimetric method
[11] = Antiplatelet activity against washed rabbit platelet assessed as arachidonic acid-induced platelet aggregation at 5 ug/mL pre-incubated 3 mins before arachidonic acid challenge by turbidimetric method
[12] = Antiplatelet activity against washed rabbit platelet assessed as arachidonic acid-induced platelet aggregation at 10 ug/mL pre-incubated 3 mins before arachidonic acid challenge by turbidimetric method
[13] = Antiplatelet activity against washed rabbit platelet assessed as thrombin-induced platelet aggregation at 20 ug/mL pre-incubated 3 mins before thrombin challenge by turbidimetric method
[14] = Antiplatelet activity against washed rabbit platelet assessed as platelet activating factor-induced platelet aggregation at 20 ug/mL pre-incubated 3 mins before PAF challenge by turbidimetric method

SMILES	Aggregation % at 100 µg/mL [1] [%]	Aggregation % at 100 µg/mL [2] [%]	Aggregation % at 100 µg/mL [3] [%]	Aggregation % at 100 µg/mL [4] [%]	aggregation at 50 µg/mL [5] [%]	Aggregation % at 50 µg/mL [6] [%]	Aggregation % at 50 µg/mL [7] [%]	Aggregation % at 50 µg/mL [8] [%]	Aggregation % at 20 µg/mL [9] [%]	Aggregation % at 20 µg/mL [10] [%]	Aggregation % at 5 µg/mL [11] [%]	Aggregation % at 10 µg/mL [12] [%]	Aggregation % at 20 µg/mL [13] [%]	Aggregation % at 20 µg/mL [14] [%]
COc1ccc2c(OC)c3c(nc2c1OC)O[C@H](C(C)(C)O)C3	86.5	84.4	89.8	81.7	–	–	–	–	–	–	–	–	–	–
COc1ccc2c(OC)c3c(nc2c1OC)O[C@@H](C(C)(C)O)[C@H]3O	85.4	79	89.4	78.3	–	–	–	–	–	–	–	–	–	–
CC(=O)Oc1ccccc1C(=O)O [ASPIRIN]	–	–	–	–	94.2	88.4	91.2	7.8	11.7	–	–	–	–	–
COc1cc(O)c2c(=O)c(OC)c(-c3ccc(OC)c(O)c3)oc2c1 [AYANIN]	85.4	43.1	88.3	13.3	–	66.1	–	38	66.3	80.3	81.9	77.2	–	–
COc1c2ccc(O)cc2nc2occc12 [CONFUSAMELINE]	–	11.4	78.6	0	–	–	–	–	–	–	–	–	–	–
COc1cc2nc3occc3c(OC)c2cc1OC [KOKUSAGININE]	–	15.2	70.7	0	–	80.6	88.9	0	–	–	–	–	–	–
CCCCCCCC/C=C\CCCCCCCC(=O)OC [METHYL OLEATE]	–	–	–	–	–	–	–	–	81.7	84.4	–	–	86.7	89.4
CC(C)=CCc1c(O)ccc2ccc(=O)oc12 [OSTHENOL]	90.4	13.7	89.8	23.2	–	79.2	–	84.8	–	87	–	–	–	–
COc1ccc2ccc(=O)oc2c1CC=C(C)C [OSTHOLE]	86.6	7.4	0	0	–	7	88.6	52.6	84.5	88.1	–	–	–	90
COCc1c(OC)c2ccc(OC)cc2[nH]c1=O [SEMECARPIFOLINE]	85.8	82.7	88.8	81	–	–	–	–	–	–	–	–	–	–
COc1cc(C(=O)O)cc(OC)c1O [SYRINGIC ACID]	88.3	85.1	89.6	83.2	–	–	–	–	–	–	–	–	–	–

— ChEMBL document CHEMBL1155760, “Quinoline alkaloids and other constituents of Melicope semecarpifolia with antiplatelet aggregation activity” (2001)
